The text below walks through data of ChEMBL document CHEMBL1157451, “Effect of some P-glycoprotein modulators on Rhodamine-123 absorption in guinea-pig ileum” (Bioorg Med Chem Lett, 2008).

The nature of this experiment: Inhibition of P-glycoprotein-mediated rhodamine 123 absorption in guinea-pig ileum. The conditions noted are these: Cavia porcellus. Type of experiment: tissue-based.

Molecules are shown by their SMILES.

In general, EC50 refers to the concentration that produces a half-maximal response. A lower EC50 goes with higher potency in that assay. In turn, `COc1cccc(CCc2ccccc2OCc2ccccn2)c1` had a 50% effective concentration (EC50) of 14.7 µM. `CC/C(=C(\c1ccccc1)c1ccc(OCCN(C)C)cc1)c1ccccc1` [TAMOXIFEN] registered an EC50 of 39.4 µM.
